Reference: patent US10493087B2, “Sialylation-increasing therapies for diseases associated with oxidative stress” (THE UNITED STATES OF AMERICA, AS REPRESENTED BY THE …, priority 2015, dated 2019)

What was measured:
Gne−/−hGNED176V-Tg mice [1] = test: Motor performance analysis (treadmill performance and endurance tests); format: in vivo; conditions: vs untreated
Experimental: N-Acetylcysteine (NAC) Treatment Protocols: […] were randomly divided into high dose NAC (n=13), low dose NAC (n=13), or untreated control (n=17) groups. […] There was no difference in water consumption between mice receiving NAC supplemented water or regular drinking water. […] Three littermates groups (high dose NAC; n=7, low dose NAC; n=7, or untreated control; n=6) were treated in the same way. Motor performance analysis: The motor performance was evaluated using treadmill exercise as previously reported (9, 10) with minor modification. Briefly, after 7 days of acclimation on the treadmill, two exercise tests were performed on separate days. […] The time of exhaustion was used to calculate the total distance of the mice ran during the exercise. The endurance exercise consisted of a 60-min treadmill run at 20 m/min with a […] incline, during which the number of beam breaks or rests were recorded. Both tests were done twice with 2 days rest in between.

Gne−/−hGNED176V-Tg mice [2] = test: Muscle contractile properties analysis (gastrocnemius); format: in vivo; conditions: for Peak isometric twitch force (Pt) / Maximum tetanic force (Po): gastrocnemius; for Peak isometric twitch force (Pt): untreated 167.1±6.0; for Maximum tetanic force (Po): untreated 526.7±24.1; for Specific isometric force (Pt/CSA): untreated 16.3±2.6; for Specific tetanic force (Po/CSA): untreated 51.4±8.9
Experimental: N-Acetylcysteine (NAC) Treatment Protocols: […] were randomly divided into high dose NAC (n=13), low dose NAC (n=13), or untreated control (n=17) groups. […] There was no difference in water consumption between mice receiving NAC supplemented water or regular drinking water. […] Three littermates groups (high dose NAC; n=7, low dose NAC; n=7, or untreated control; n=6) were treated in the same way. Muscle contractile properties analysis: The contractile properties of the gastrocnemius and tibialis anterior muscles were measured according to previous protocol ([…] et al., Nat Med. 2009; 15:690-695; […] et al., Physiol Genomics. 2008; 35:106-115). After the mouse was anesthetized with intraperitoneal sodium pentobarbital (50 mg per kg body weight), the entire skeletal muscles were isolated along with the proximal bone of origin intact. Then the muscle was mounted in a vertical chamber and connected to a force-displacement and length servo system. […] With the muscle held at L0 and duration changed to 3 ms, the force developed during trains of stimulation pulses (10 to 100 Hz) was recorded and the maximum absolute tetanic force (Po) was determined. Absolute force was normalized with the physiologic cross-sectional area (CSA; muscle weight divided by the product of L0 and 1.066 g/cm^3) to obtain specific force (Pt/CSA and Po/CSA).

Gne−/−hGNED176V-Tg mice [3] = test: Fiber diameter analysis of gastrocnemius muscles; format: in vivo; conditions: for Mean fiber diameter: gastrocnemius
Experimental: N-Acetylcysteine (NAC) Treatment Protocols: […] were randomly divided into high dose NAC (n=13), low dose NAC (n=13), or untreated control (n=17) groups. […] There was no difference in water consumption between mice receiving NAC supplemented water or regular drinking water. […] Three littermates groups (high dose NAC; n=7, low dose NAC; n=7, or untreated control; n=6) were treated in the same way. Fiber diameter analysis: Muscle tissues were processed according to previous protocols (8-10). For the morphometric analysis, we stained frozen transverse sections (6 μm) of gastrocnemius muscles with rabbit polyclonal antibody to caveolin 3 (BD Transduction Laboratories), followed by Alexa fluor-conjugated goat IgG antibody to rabbit (Invitrogen). Five randomly selected images per mouse were used to measure fiber diameters using ImageJ software (NIH). Minimal inner diameters of 1,000 myofibers from each mouse were measured.

GNE Myopathy muscle = test: Gene expression analysis of muscle (quantitative RT-PCR and microarray); format: in vivo, mice
Experimental: Quantitative RT-PCR and microarray analysis: […] Microarray experiments were carried out using a […] Mouse Whole Genome Bioarray (Applied Microarrays Inc.) at Filgen Inc. The arrays were scanned using a […] Array Scanner (Molecular Devices Inc.). The data were analyzed by using Microarray Data Analysis Tool version 3.2 (Filgen Inc.). For quantitative PCR, TAQMAN® probes were used in combination with the TAQMAN® Gene Expression Master Mix (Applied Biosystems) in a total reaction of 20 μl. STEPONEPLUSTM Real-Time PCR System (Applied Biosystems) was used to quantify mRNA expression. mRNA relative expression was normalized to internal control (GAPDH) and determined as fold change in the average expression value of littermate muscles. The TAQMAN® probes used were as follows: F-box protein 32 (Fbxo32), Mm00499523_m1; tripartite motif-containing 63 (Trim63), Mm01185221_m1; Sulfiredoxin1 homolog (Srxn1), Mm00769566_m1; metallothionein 1 (Mt1), Mm00496660_g1; metallothionein 2 (Mt2), Mm00809556_s1; metallothionein 3 (Mt3), Mm00496661_g1; LC3b, Mm00782868_sH. N-Acetylcysteine (NAC) Treatment Protocols: […] were randomly divided into high dose NAC (n=13), low dose NAC (n=13), or untreated control (n=17) groups. […] There was no difference in water consumption between mice receiving NAC supplemented water or regular drinking water. […] Three littermates groups (high dose NAC; n=7, low dose NAC; n=7, or untreated control; n=6) were treated in the same way.

β-amyloid = β-amyloid expression by ELISA in muscle homogenates; format: in vivo, mice; conditions: after NAC treatment
[4] = Safety of long term NAC treatment (side effects, serum chemistry); format: in vivo, mice
Description: N-Acetylcysteine (NAC) Treatment Protocols: Gne^−/−hGNED176V-Tg mice were randomly divided into high dose NAC (n=13), low dose NAC (n=13), or untreated control (n=17) groups. For NAC (Sigma) treatment, mice were provided ad libitum access to drinking water containing high dose NAC (1.0% w/v) or low dose NAC (0.1% w/v), which gives an average dose of 1.5 g/kg for high dose group and of 0.15 g/kg for low dose group per day. There was no difference in water consumption between mice receiving NAC supplemented water or regular drinking water. Treatment was initiated from the average age of 26 weeks until the mice reached at least 55 weeks. Three littermates groups (high dose NAC; n=7, low dose NAC; n=7, or untreated control; n=6) were treated in the same way.

[5] = HD and LD treated GNE Myopathy muscles

Q: Which “Treadmill performance and endurance tests” value (Gne−/−hGNED176V-Tg mice [1]; high dose (HD) 1.5 g/kg per day in drinking water) does the source give for `CC(=O)N[C@@H](CS)C(=O)O` [NAC, N-acetylcysteine] here?
A: significantly improved

Q: And the “Motor function (treadmill)” value (Gne−/−hGNED176V-Tg mice [1]; low dose (LD) 0.15 g/kg per day in drinking water)?
A: better motor function

Q: And the “Peak isometric twitch force (Pt)” value (Gne−/−hGNED176V-Tg mice [2]; HD group 1.5 g/kg per day)?
A: 228.5±15.0 mN

Q: What about the “Maximum tetanic force (Po)” value (Gne−/−hGNED176V-Tg mice [2]; HD group 1.5 g/kg per day) of the same molecule?
A: 687.5±52.4 mN

Q: What about the “Specific isometric force (Pt/CSA)” value (Gne−/−hGNED176V-Tg mice [2]; HD group 1.5 g/kg per day) of the same molecule?
A: 22.5±5.1 mN/mm^2

Q: What about the “Specific tetanic force (Po/CSA)” value (Gne−/−hGNED176V-Tg mice [2]; HD group 1.5 g/kg per day) of the same molecule?
A: 67.5±15.7 mN/mm^2

Q: And the “Peak isometric twitch force (Pt)” value (Gne−/−hGNED176V-Tg mice [2]; LD group 0.15 g/kg per day)?
A: 233.6±10.0 mN

Q: What about the “Maximum tetanic force (Po)” value (Gne−/−hGNED176V-Tg mice [2]; LD group 0.15 g/kg per day) of the same molecule?
A: 735.0±43.0 mN

Q: And the “Specific isometric force (Pt/CSA)” value (Gne−/−hGNED176V-Tg mice [2]; LD group 0.15 g/kg per day)?
A: 23.4±3.3 mN/mm^2

Q: What about the “Specific tetanic force (Po/CSA)” value (Gne−/−hGNED176V-Tg mice [2]; LD group 0.15 g/kg per day) of the same molecule?
A: 73.5±13.5 mN/mm^2

Q: What about the “Increase of absolute contractile forces (Pt and Po) in littermate mice” value (Gne−/−hGNED176V-Tg mice [2]; littermate control mice with NAC supplement) of the same molecule?
A: not statistically significant

Q: What about the Mean fiber diameter (Gne−/−hGNED176V-Tg mice [3]; HD group 1.5 g/kg per day, p<0.05 vs untreated 31.7±0.8) of the same molecule?
A: 35.2±1.2 μm

Q: What about the Mean fiber diameter (Gne−/−hGNED176V-Tg mice [3]; LD group 0.15 g/kg per day, p<0.01 vs untreated 31.7±0.8) of the same molecule?
A: 35.7±0.8 μm

Q: And the “Average fiber diameters in healthy control mice” value (Gne−/−hGNED176V-Tg mice [3]; some healthy control (littermate) mice with NAC supplement)?
A: increased

Q: And the “Upregulation of atrogenes (atrogin-1 and MuRF1)” value (GNE Myopathy muscle; [5])?
A: recovered

Q: And the “Upregulation of oxidative stress responsive genes (MT1 and MT2)” value (GNE Myopathy muscle; [5])?
A: recovered

Q: What about the “LC3b expression (marker of autophagy)” value (GNE Myopathy muscle; treated GNE Myopathy muscles, RT-PCR and microarray) of the same molecule?
A: recovered as well

Q: What about the “β-amyloid expression by ELISA in muscle homogenates” value (β-amyloid) of the same molecule?
A: decreased

Q: And the Adverse side effects ([4]; long term treatment of mice)?
A: No adverse side effects

Q: What about the Alkaline phosphatase ([4]; treated vs untreated mice) of the same molecule?
A: no difference

Q: What about the Blood urea nitrogen ([4]; treated vs untreated mice) of the same molecule?
A: no difference

Q: And the Serum aspartate aminotransferase ([4]; treated vs untreated mice)?
A: no difference
